Reference: patent EP0399653B1, “Anticonvulsant triazolo[4,5-c]pyridine derivatives” (THE WELLCOME FOUNDATION LIMITED, priority 1989, dated 1990)
Counter-ions that a name gives are not always drawn. Like-named read-outs stand apart in the source and are kept apart here.

Experiment: standard maximal electroshock test (MES), anticonvulsant activity
Format: in vivo
Conditions: tested as HCl salt
Experimental: The anticonvulsant activity of certain compounds of the present invention were determined by a standard maximal electroshock test (MES); that described by L.A.Woodbury and V.D.Davenport, Arch. Int.Pharmacodyn, 1952 92 97.

[1] = ip, I.P administration, read-out: ED50.I.P
[2] = po, P.O administration, read-out: ED50.P.O

| Compound | ED50 [1] [mg/kg] | ED50 [2] [mg/kg] |
| --- | --- | --- |
| CNc1nccc2c1nnn2Cc1ccccc1F [Example 1, 1-(2-fluorobenzyl)-4-(methylamino)-1H-1,2,3-triazolo[4,5-c]pyridine] | 4.5 | 4.4 |
| Fc1ccccc1Cn1nnc2c(NC3CC3)nccc21 [Example 2, 4-(cyclopropylamino)-1-(2-fluorobenzyl)-1H-1,2,3-triazolo [4,5-c] pyridine] | 4.8 | 6.3 |
| CCNc1nccc2c1nnn2Cc1ccccc1F [Example 3, 4-(ethylamino)-1-(2-fluorobenzyl)-1H-1,2,3-triazolo[4,5-c] pyridine] | 8.3 | 10.3 |
| CN(C)c1nccc2c1nnn2Cc1ccccc1F [Example 4, 4-(dimethylamino)-1-(2-fluorobenzyl)-1H-1,2,3-triazolo [4,5-c]pyridine] | 6.3 | 6.6 |
| CNc1nccc2c1nnn2Cc1c(F)cccc1F [Example 5, 1-(2,6-difluorobenzyl)-4-(methylamino)-1H-1,2,3-triazolo [4,5-c] pyridine] | 7.8 | 5.3 |
| Nc1nccc2c1nnn2Cc1c(F)cccc1F [Example 6, 4-amino-1-(2,6,-difluorobenzyl)-1H-1,2,3-triazolo [4,5-c]pyridine hydrochloride] | 6.3 | 3.7 |
| CNc1nccc2c1nnn2Cc1cc(F)ccc1F [Example 7, 1-(2,5-difluorobenzyl)-4-(methylamino)-1H-1,2,3-triazolo [4,5-c]pyridine] | 5 | 4.3 |
| CNc1nccc2c1nnn2Cc1ccccc1 [Example 8, 1-benzyl-4-(methylamino)-1H-1,2,3-triazolo[4.5-c]pyridine] | 7.8 | 8.9 |
| Fc1cccc(F)c1Cn1nnc2c(NC3CC3)nccc21 [Example 10, 4-(cyclopropylamino)-1-(2,6-difluorobenzyl)-1H-1,2,3-triazolo[4,5-c]pyridine] | 4.1 | 8.1 |
